According to PMC7155171, “Probing the Open Global Health Chemical Diversity Library for Multistage-Active Starting Points for Next-Generation Antimalarials” (ACS Infectious Diseases, 2020):
Where two headings read alike, the source gives them in different places.

Experiments:
[1] = test system: P. falciparum Dd2; test: SYBR green I asexual blood stage proliferation assay (96 h); format: cell-based, Plasmodium falciparum; details: for IC50 / Emax: Plasmodium falciparum
[2] = test system: P. falciparum Dd2 (PfLuc) line expressing firefly luciferase, asexual blood stage; test: microbe, parasite or virus in culture; format: cell-based, Plasmodium falciparum
[3] = DD2, Sybr Green I, 11-pt dose response, 96hr, read-out: CDD P. falciparum Sybr Green I ABS 11-pt Reconfirmation Dose Response (96hr): IC50
[4] = DD2, Sybr Green I, 11-pt dose response, 96hr, read-out: CDD P. falciparum Sybr Green I ABS 11-pt Reconfirmation Dose Response (96hr): Maximum inhibition (%)
[5] = Plasmodium falciparum, DD2, read-out: CDD P. falciparum Luciferase ABS 11-pt Reconfirmation Dose Response (48hr): IC50 (μM), 11-pt dose response, 48hr
[6] = Plasmodium falciparum, DD2, 8-pt dose response, 96hr, read-out: CDD P. falciparum Luciferase ABS 8-pt Reconfirmation Dose Response (96hr): IC50
[7] = Plasmodium falciparum, DD2, 8-pt dose response, 96hr, read-out: CDD P. falciparum Luciferase ABS 8-pt Reconfirmation Dose Response (96hr): Maximum inhibition (%)
[8] = Plasmodium falciparum, DD2, 11-pt dose response, 48hr, read-out: CDD P. falciparum Luciferase ABS 11-pt Reconfirmation Dose Response (48hr): Maximum inhibition (%)
[9] = Plasmodium falciparum, DD2, 11-pt dose response, 96hr, read-out: CDD P. falciparum Luciferase ABS 11-pt Reconfirmation Dose Response (96hr): IC50
[10] = Plasmodium falciparum, DD2, 11-pt dose response, 96hr, read-out: CDD P. falciparum Luciferase ABS 11-pt Reconfirmation Dose Response (96hr): Maximum inhibition (%)
[11] = DD2, 11-pt dose response, 96hr, read-out: P. falciparum Sybr Green I ABS 11-pt Reconfirmation Dose Response (96hr): IC50
[12] = DD2, 11-pt dose response, 96hr, read-out: P. falciparum Sybr Green I ABS 11-pt Reconfirmation Dose Response (96hr): Maximum inhibition (%)
[13] = Plasmodium falciparum, DD2, read-out: P. falciparum Luciferase ABS 11-pt Reconfirmation Dose Response (48hr): IC50, 11-pt dose response, 48hr
[14] = Plasmodium falciparum, DD2, 8-pt dose response, 96hr, read-out: P. falciparum Luciferase ABS 8-pt Reconfirmation Dose Response (96hr): IC50
[15] = Plasmodium falciparum, DD2, 8-pt dose response, 96hr, read-out: P. falciparum Luciferase ABS 8-pt Reconfirmation Dose Response (96hr): Maximum inhibition (%)
[16] = Plasmodium falciparum, DD2, 11-pt dose response, 96hr, read-out: P. falciparum Luciferase ABS 11-pt Reconfirmation Dose Response (96hr): IC50
[17] = Plasmodium falciparum, DD2, 11-pt dose response, 96hr, read-out: P. falciparum Luciferase ABS 11-pt Reconfirmation Dose Response (96hr): Maximum inhibition (%)
[18] = Plasmodium falciparum, DD2, 11-pt dose response, 48hr, read-out: P. falciparum Luciferase ABS 11-pt Reconfirmation Dose Response (48hr): Maximum inhibition (%)

Molecule | IC50 [1, 3] | Emax [1, 4] | IC50 [2, 5] | IC50 [2, 6] | Emax [2, 7] | Emax [2, 8] | IC50 [2, 9] | Emax [2, 10] | other results
COc1cc(CNCC(O)c2ccc(F)c(F)c2)cc2c1OCO2 (centres unmarked) [DDD00408586] | 1890 nM | 97.2% | 2.05 µM | 0.55 µM | 90.7% | 96.5% | 1.22 µM | 99.5% | –
CC[C@H]1CN2CC[C@H]1C[C@@H]2CNCc1ccc(OC(F)(F)F)cc1 [DDD01025218] | 4160 nM | 89.4% | 2.91 µM | 1.07 µM | 92.1% | 93% | > 1.39 µM | 100% | –
COc1ccc2[nH]c(C[C@@H]3C[C@@H](C(C)C)[C@H](CN(C)C)C=C3C)nc2c1 [DDD01025345] | 3630 nM | 67.2% | 12 µM | 0.59 µM | 88.6% | 66.8% | 1.53 µM | 91.5% | –
CCC1CN(CC(=O)NCCN2CCCCC2)c2ccccc2S1 (centres unmarked) [DDD01025850] | 7990 nM | 74.7% | 5.56 µM | 1.1 µM | 87.2% | 55.4% | 2.56 µM | 83.2% | –
CN1CC[C@H](N(Cc2ccccc2)Cc2ccccc2)C[C@H](O)C1 [DDD01026217] | 7310 nM | 73.4% | > 4.16 µM | 0.91 µM | 80.7% | 69.3% | > 4.16 µM | 93.7% | –
Cc1ccc(C(CCNCCCN(C)C)C2CCOC(C)(C)C2)cc1 (centres unmarked) [DDD01026662] | 1570 nM | 97.5% | 7.59 µM | 0.76 µM | 96.2% | 95.3% | 5.89 µM | 98.8% | –
CN(C)CCCNCCC(Cc1ccccc1)C1CCOC(C)(C)C1 (centres unmarked) [DDD01026664, CN(C)CCCNCCC(Cc1ccccc1)C1CCOC(C)(C)C1] | – | – | – | – | – | – | – | – | CDD P. falciparum Sybr Green I ABS Dd2 Dose Response: Maximum measured (%) ([1]; Dd2, 96 h): 98.8%; IC50 ([1]; DD2, 96 h, read-out: CDD P. falciparum Sybr Green I ABS Dd2 Dose Response: IC50): 251 nM; IC50 ([2]; Plasmodium falciparum, DD2, read-out: CDD P. falciparum Luc 11pt dose response (96hr, n=2): IC50 (μM), 96hr, 11-point, n=2): 0.11 µM; IC50 ([2]; Plasmodium falciparum, DD2, read-out: CDD P. falciparum Luciferase 11pt dose response (48hr, n=2): IC50 (μM), 48hr, 11-point, n=2): 0.405 µM; Emax ([2]; Plasmodium falciparum, DD2, 48hr, 11-point, read-out: CDD P. falciparum Luciferase ABS 11-pt Reconfirmation Dose Response (48hr): Maximum inhibition (%)): 98.1%; Emax ([2]; Plasmodium falciparum, DD2, 96hr, 11-point, read-out: CDD P. falciparum Luciferase ABS 11-pt Reconfirmation Dose Response (96hr): Maximum inhibition (%)): 101%
Cc1ncc(CNCCO)c2cc(C(=O)c3ccc(Br)cc3)oc12 [DDD01027290] | – | – | – | – | – | – | – | – | IC50 [1, 11]: 3320 nM; Emax [1, 12]: 63.7%; IC50 [2, 13]: > 12.5 µM; IC50 [2, 14]: 1.35 µM; Emax [2, 15]: 90.8%; IC50 [2, 16]: 1.63 µM; Emax [2, 17]: 98.3%
O=S(=O)(NCC(c1ccsc1)N1CCCCCC1)c1cccs1 (centres unmarked) [DDD01027501] | – | – | – | – | – | – | – | – | IC50 [1, 11]: 7790 nM; Emax [1, 12]: 69.9%; IC50 [2, 13]: > 12.5 µM; IC50 [2, 14]: 1.94 µM; Emax [2, 15]: 83.7%; Emax [2, 18]: 44%; IC50 [2, 16]: 8.75 µM
Cc1cc(C)c(N(CC(O)CNCc2ccccc2)S(C)(=O)=O)c(C)c1 (centres unmarked) [DDD01027603] | 4910 nM | 81.7% | 2.17 µM | 0.51 µM | 90.1% | 75% | 0.829 µM | 90.9% | –
Cc1cc(CN2CCC(CNS(=O)(=O)c3ccc(Br)s3)CC2)c(C)o1 [DDD01027665] | > 12500 nM | 32.7% | 3.89 µM | 0.63 µM | 89.4% | 82% | 1.08 µM | 95% | –
COc1ccc(CCC(=O)NCCN2CCC(c3cccs3)CC2)cc1 [DDD01028015] | 4170 nM | 71.9% | 11.4 µM | 0.95 µM | 85.7% | 69.6% | 2.24 µM | 86.6% | –
O=C(NCCc1ccccc1)NCCN1CCC(c2cccs2)CC1 [DDD01028018] | – | – | – | – | – | – | – | – | IC50 [1, 11]: > 4160 nM; Emax [1, 12]: 69.6%; IC50 [2, 13]: 5.18 µM; IC50 [2, 14]: 1.18 µM; Emax [2, 15]: 87.7%; Emax [2, 18]: 64%; IC50 [2, 16]: 1.42 µM; Emax [2, 17]: 87.1%
COc1ccc(NC(=O)Nc2cnc(N3CCN(C)CC3)nc2)cc1Cl [DDD01028129] | – | – | – | – | – | – | – | – | IC50 [1, 11]: > 12500 nM; Emax [1, 12]: 38.2%; IC50 [2, 13]: > 12.5 µM; IC50 [2, 14]: 1.39 µM; Emax [2, 15]: 94.1%; Emax [2, 18]: 14.8%; IC50 [2, 16]: 4.41 µM; Emax [2, 17]: 57.8%
c1ccc(C[C@H]2CN(C3CCOCC3)CC[C@H]2OCC2CC2)cc1 [DDD01028772] | 7170 nM | 69.9% | > 12.5 µM | 0.69 µM | 87% | 70.2% | 1.04 µM | 91.3% | –
CN1CCC2(CCCN(c3nccc(C(F)(F)F)n3)C2)CC1 [DDD01028783] | 8820 nM | 74% | > 12.5 µM | 0.75 µM | 87.2% | 60.6% | 3.57 µM | 84.9% | –
CC(C)N1CCC2(CCCN(c3nccc(C(F)(F)F)n3)C2)CC1 [DDD01028790] | 9750 nM | 76.4% | 3.12 µM | 0.61 µM | 89.3% | 69% | 1.33 µM | 91.1% | –
Fc1cccc(CN2C[C@@H]3CN(Cc4ccccn4)C[C@@H]3C2)c1 [DDD01029091] | 2340 nM | – | 1.16 µM | 0.62 µM | 95.3% | 94% | 0.354 µM | 100% | –
NCC1[C@H]2CN(Cc3cccc(Cl)c3)C[C@@H]12 (some centres unmarked) [DDD01029240] | 1890 nM | 90.7% | 2.68 µM | 0.55 µM | 93.8% | 85% | 1.2 µM | 99% | –
c1ccc(CN2CCCC3(CCN(Cc4cccs4)C3)C2)nc1 (centres unmarked) [DDD01029520] | – | – | – | – | – | – | – | – | IC50 [1, 11]: > 4160 nM; Emax [1, 12]: 58%; IC50 [2, 13]: 6.38 µM; IC50 [2, 14]: 1.97 µM; Emax [2, 15]: 83.5%; Emax [2, 18]: 51.8%; IC50 [2, 16]: 2.96 µM; Emax [2, 17]: 86.9%
c1ccc(N2CCCC3(CCN(Cc4ccsc4)C3)C2)nc1 (centres unmarked) [DDD01029521] | 1880 nM | 66.8% | 3.75 µM | 1.02 µM | 83.9% | 64.3% | 2.51 µM | 86.9% | –
Fc1ccc(CN2CCC3(CC2)CCN(Cc2nccs2)CC3)cc1 [DDD01031337] | > 1390 nM | 71.7% | 8.85 µM | 0.78 µM | 88.8% | 69.4% | 1.46 µM | 87.9% | –
Cc1ccc(CN2CCC3(CC2)CCN(Cc2ccoc2)CC3)cc1 [DDD01031590] | 2330 nM | – | 2.04 µM | 0.24 µM | 94.3% | 86.7% | 0.444 µM | 99.4% | –
Cc1ccc(CN2CCC3(CC2)CCN(Cc2ccco2)CC3)cc1 [DDD01031591] | 6720 nM | 84.1% | 7.27 µM | 0.77 µM | – | 74.1% | 0.938 µM | 94.4% | –
CN1[C@H](Cn2cccn2)C[C@@H]2CN(Cc3cccs3)CC[C@@H]21 [DDD01032287] | > 4160 nM | 67.6% | > 12.5 µM | 0.77 µM | 80.2% | 45.9% | > 1.39 µM | 85.9% | –
C[C@@H]1CC[C@H]2[C@@H](C)C(=O)O[C@@H]3O[C@@]4(C)CC[C@@H]1[C@]32OO4 [artemisinin, reference compound] | – | – | – | – | – | – | – | – | inhibition at 10 µM ([2]; Plasmodium falciparum, DD2, 96 h, control at 10 μM, read-out: mean inhibition of positive control in ABS primary screen): 99.6 ± 1.03%
CCC[C@@H]1C[C@@H](C(=O)N[C@@H]([C@H]2O[C@H](SC)[C@H](O)[C@@H](O)[C@H]2O)[C@H](C)Cl)N(C)C1 [clindamycin, reference compound] | – | – | – | – | – | – | – | – | IC50 ([1]; 96 h, Dd2, read-out: 96 h SYBR green ABS IC50): > 10000 nM
Doxycycline [reference compound] | – | – | – | – | – | – | – | – | IC50 ([2]; 96 h incubation, Dd2 luciferase, read-out: 96 hour Pfluc IC50): 0.55 ± 0.2 µM; IC50 ([2]; read-out: 48 hour Pfluc IC50, 48 h incubation, Dd2 luciferase): 7.18 ± 1.59 µM
